Measured values: the NIST ThermoML archive (doi:10.1016/j.jct.2017.01.006)
± gives the expanded uncertainty stated by the source.

Assay: Molar enthalpy of transition or fusion
Settings: Crystal; DSC

Nc1ccc(N)c([N+](=O)[O-])c1 [2-nitro-1,4-benzenediamine]
Molar enthalpy of transition or fusion: 16.4 ± 0.88 kJ/mol
